Laboratory results taken from ChEMBL document CHEMBL5252529, “Small Molecules in Development for the Treatment of Spinal Muscular Atrophy” (J Med Chem, 2016).
pEC50, pIC50: −log10 of the molar value. ≈ marks a conversion by molar mass, not a printed value.

What was measured:
[1] = Half life in mouse liver microsomes; assay type: ADME, Microsome
[2] = Aqueous solubility of compound at pH 7.4; assay type: physicochemical; conditions: buffer
[3] = Increase in SMN2 expression in human HEK293 cells assessed as luciferase reporter activity incubated for 24 hrs
[4] = Toxicity in Spinal muscular atrophy mouse assessed as survival rate after 5 days; conditions: in vivo, 120 h, time 5 day
[5] = Acute toxicity in Spinal muscular atrophy mouse assessed as survival rate; conditions: in vivo
[6] = Half life in human serum measured upto 30 min by HPLC analysis
m7GpppX diphosphatase = biological target: T1, m7GpppX diphosphatase (Homo sapiens, UniProt Q96C86); assay: Inhibition of human DcpS
T1 sequence (Q96C86 whole entry): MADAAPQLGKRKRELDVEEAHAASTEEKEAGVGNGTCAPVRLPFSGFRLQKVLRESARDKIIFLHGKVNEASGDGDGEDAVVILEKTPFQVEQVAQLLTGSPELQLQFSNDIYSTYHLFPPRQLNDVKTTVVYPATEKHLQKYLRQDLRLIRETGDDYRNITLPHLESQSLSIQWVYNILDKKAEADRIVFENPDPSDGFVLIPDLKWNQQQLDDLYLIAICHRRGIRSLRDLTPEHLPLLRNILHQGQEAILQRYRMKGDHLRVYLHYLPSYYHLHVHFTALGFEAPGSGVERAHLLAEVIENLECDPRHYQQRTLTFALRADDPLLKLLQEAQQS

[7] = Activation of rabbit psoas fast skeletal Myofibril; assay type: tissue-based, Oryctolagus cuniculus, Muscle tissue
[8] = Toxicity in Spinal muscular atrophy mouse assessed as survival rate at day 112 (reference value: 100 %); conditions: in vivo
[9] = AUClast in Spinal muscular atrophy mouse plasma at 10 mg/kg, po by LC/MS-MS analysis; assay type: ADME, organism-based; design: dose 10 mg/kg, route po
[10] = Toxicity in Spinal muscular atrophy mouse assessed as survival rate at 10 mg/kg, ip administered daily; assay type: organism-based; conditions: in vivo
[11] = AUClast in Spinal muscular atrophy mouse brain at 10 mg/kg, po by LC/MS-MS analysis; assay type: ADME, organism-based; design: dose 10 mg/kg, route po
[12] = Toxicity in Spinal Muscular atrophy mouse assessed as increase in survival rate; conditions: in vivo
[13] = Toxicity in Spinal muscular atrophy mouse assessed as survival rate (reference value: 15 %); conditions: in vivo
[14] = Brain to plasma ratio in Spinal muscular atrophy mouse at 3 mg/kg administered subcutaneously for 42 days; assay type: ADME, organism-based; conditions: route sc, time 42 day, read-out: BPR
[15] = Brain to plasma ratio in Spinal muscular atrophy mouse at 3 mg/kg administered subcutaneously for 7 days; assay type: ADME, organism-based; conditions: route sc, time 7 day, read-out: BPR
[16] = Toxicity in Spinal muscular atrophy mouse assessed as survival rate at 1 to 3 mg/kg, po administered daily for 65 days; assay type: organism-based; conditions: in vivo, 1560 h, dose 1-3 mg/kg, time 65 day
Mus musculus [17] = assay: Modulation of human SMN2 protein level in Spinal muscular atrophy mouse model assessed as increase in protein level of brain tissue at 10 mg/kg, ip
Mus musculus [18] = assay: Modulation of human SMN2 protein level in Spinal muscular atrophy mouse model assessed as increase in protein level of muscle tissue at 10 mg/kg, ip
[19] = Toxicity in Spinal muscular atrophy mouse assessed as survival rate at 0.3 mg/kg, ip administered daily for 40 days; assay type: organism-based; conditions: in vivo, 960 h, time 40 day
Mus musculus [20] = assay: Modulation of human SMN2 mRNA level in Spinal muscular atrophy mouse brain tissue at 10 mg/kg, po measured after 4 hrs; assay type: functional
Mus musculus [21] = assay: Modulation of human SMN2 mRNA level in Spinal muscular atrophy mouse muscle tissue at 10 mg/kg, po measured after 4 hrs; assay type: functional

Structure (SMILES): CC(C)c1cc(C(=O)Nc2ccc(F)c(Cl)c2)no1
- half-life [1]: 5 min
- solubility [2]: 6 µM (≈ 1.7 µg/mL)

Structure (SMILES): COc1cc2c(c(OC)c1OC)C(c1cc(Br)ccc1F)CC(=O)N2 (stereo not drawn)
- EC50 at 24 h [3]: 8.3 µM
- half-life [1]: 40 min
- solubility [2]: 4 µM (≈ 1.64 µg/mL)

Structure (SMILES): CC(/C=C/C(=O)NO)=C\[C@@H](C)C(=O)c1ccc(N(C)C)cc1 [TRICHOSTATIN]
- Activity [4]: 19%
- Activity [5]: 40%

Structure (SMILES): CCCC(=O)[O-].[Na+] [SODIUM BUTYRATE]
- half-life at 0.5 h [6]: 6 min

Structure (SMILES): Nc1nc(N)c2c(OCC3CCN(C(=O)c4cccc([125I])c4)CC3)cccc2n1
- pIC50 (m7GpppX diphosphatase): 7.44

Structure (SMILES): CC(C)c1cc(C(=O)Nc2ccccc2)no1
- half-life [1]: 5 min
- solubility [2]: 59 µM (≈ 13.6 µg/mL)

Structure (SMILES): C#Cc1cnc2nc(O)n(C(CC)CC)c2n1
- pEC50 [7]: 5.47

Structure (SMILES): Nc1nc(N)c2c(OCC3CCN(Cc4c(Cl)cccc4Cl)CC3)cccc2n1
- Activity [8]: 27%
- AUC(0-t) [9]: 157 ng·h/mL
- Activity [10]: 26%
- AUC(0-t) [11]: 6760 ng·h/mL

Structure (SMILES): CC(C)c1cc(C(=O)Nc2ccccn2)no1
- half-life [1]: > 120 min
- solubility [2]: 77 µM (≈ 17.8 µg/mL)

Structure (SMILES): O=C(CCCCCCC(=O)Nc1ccccc1)NO [VORINOSTAT]
- Activity [12]: 30%

Structure (SMILES): CC(C)CCC[C@@H](C)[C@H]1CC[C@H]2[C@@H]3CCC4=CC(=NO)CC[C@]4(C)[C@H]3CC[C@]12C [OLESOXIME]
- Activity [13]: 45%
- Kp at 1008 h [14]: 0.51
- Kp at 168 h [15]: 0.35

Structure (SMILES): CCN1CCC(c2cc(C)c3nc(-c4cc5c(C)nc(C)cn5n4)cc(=O)n3c2)CC1
- Activity [16]: 90%
- Activity (Mus musculus [17]): 150%
- Activity (Mus musculus [18]): 90%
- Activity [19]: 50%
- Activity (Mus musculus [20]): 90%
- Activity (Mus musculus [21]): 50%
